The values that follow come from patent US20240190849A1, “AMINOPYRIMIDINE COMPOUNDS AND METHODS OF THEIR USE” (TYRA BIOSCIENCES, INC., priority 2021, published 2024).

The term Kd denotes a measure of binding affinity in units of concentration. Lower therefore signals higher affinity.

Details in all cases: FGFR binding data
One test addresses T1, FGFR1 (Homo sapiens, UniProt P11362).
T1 construct: made in house; host or cells: E. coli derived from BL21, infected with T7 phage
Put plainly: Kinase binding assay (kinase-tagged T7 phage, affinity beads, qPCR readout), FGFR1. An outline of the steps: (§1)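 First, streptavidin beads were loaded with biotinylated ligand and blocked. Kinase, beads and compound were then shaken together for 1 hour at room temperature in SeaBlock/PBS/Tween/DTT buffer. Finally, eluted kinase was measured by qPCR and Kd fitted with Hill slope −1.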
Background: Real-time PCR tracks product formation cycle by cycle.

A further test deals with T2, FGFR3 (V555M) (Homo sapiens, UniProt P22607, V555M).
T2 construct: made in house; host or cells: E. coli derived from BL21, infected with T7 phage
Put plainly: Kinase binding assay (kinase-tagged T7 phage, affinity beads, qPCR readout), FGFR3 (V555M). An outline of the steps:
as §1

Another test concerns the target T3, FGFR3 (Homo sapiens, UniProt P22607).
T3 construct: made in house; host or cells: E. coli derived from BL21, infected with T7 phage
Put plainly: Kinase binding assay (kinase-tagged T7 phage, affinity beads, qPCR readout), FGFR3. An outline of the steps: as §1

Another test has as its target T4, FGFR2 (Homo sapiens, UniProt P21802).
T4 construct: made in house; host or cells: E. coli derived from BL21, infected with T7 phage
Put plainly: Kinase binding assay (kinase-tagged T7 phage, affinity beads, qPCR readout), FGFR2. An outline of the steps:
as §1

T3 sequence (P22607 23-806): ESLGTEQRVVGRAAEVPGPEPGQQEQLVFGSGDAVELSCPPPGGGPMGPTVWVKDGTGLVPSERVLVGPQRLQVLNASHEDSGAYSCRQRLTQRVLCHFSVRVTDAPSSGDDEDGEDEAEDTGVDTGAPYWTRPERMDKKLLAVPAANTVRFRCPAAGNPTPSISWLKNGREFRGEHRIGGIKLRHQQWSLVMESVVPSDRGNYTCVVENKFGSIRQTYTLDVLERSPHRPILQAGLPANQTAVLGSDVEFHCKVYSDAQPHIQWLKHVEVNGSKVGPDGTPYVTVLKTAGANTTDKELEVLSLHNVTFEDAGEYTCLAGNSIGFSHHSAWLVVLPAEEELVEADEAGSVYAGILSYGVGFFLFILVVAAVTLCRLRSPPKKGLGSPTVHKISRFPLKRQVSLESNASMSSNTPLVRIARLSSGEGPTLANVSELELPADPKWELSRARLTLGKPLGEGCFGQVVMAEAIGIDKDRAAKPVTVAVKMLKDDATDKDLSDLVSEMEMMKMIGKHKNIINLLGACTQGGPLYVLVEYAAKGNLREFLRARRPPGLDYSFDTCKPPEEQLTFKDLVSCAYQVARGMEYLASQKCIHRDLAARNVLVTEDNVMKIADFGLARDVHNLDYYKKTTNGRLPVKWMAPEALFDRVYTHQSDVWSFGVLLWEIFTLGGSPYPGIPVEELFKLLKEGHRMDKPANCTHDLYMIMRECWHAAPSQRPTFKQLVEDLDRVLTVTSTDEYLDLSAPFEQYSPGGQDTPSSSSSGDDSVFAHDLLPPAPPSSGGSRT
T1 sequence (P11362 22-822): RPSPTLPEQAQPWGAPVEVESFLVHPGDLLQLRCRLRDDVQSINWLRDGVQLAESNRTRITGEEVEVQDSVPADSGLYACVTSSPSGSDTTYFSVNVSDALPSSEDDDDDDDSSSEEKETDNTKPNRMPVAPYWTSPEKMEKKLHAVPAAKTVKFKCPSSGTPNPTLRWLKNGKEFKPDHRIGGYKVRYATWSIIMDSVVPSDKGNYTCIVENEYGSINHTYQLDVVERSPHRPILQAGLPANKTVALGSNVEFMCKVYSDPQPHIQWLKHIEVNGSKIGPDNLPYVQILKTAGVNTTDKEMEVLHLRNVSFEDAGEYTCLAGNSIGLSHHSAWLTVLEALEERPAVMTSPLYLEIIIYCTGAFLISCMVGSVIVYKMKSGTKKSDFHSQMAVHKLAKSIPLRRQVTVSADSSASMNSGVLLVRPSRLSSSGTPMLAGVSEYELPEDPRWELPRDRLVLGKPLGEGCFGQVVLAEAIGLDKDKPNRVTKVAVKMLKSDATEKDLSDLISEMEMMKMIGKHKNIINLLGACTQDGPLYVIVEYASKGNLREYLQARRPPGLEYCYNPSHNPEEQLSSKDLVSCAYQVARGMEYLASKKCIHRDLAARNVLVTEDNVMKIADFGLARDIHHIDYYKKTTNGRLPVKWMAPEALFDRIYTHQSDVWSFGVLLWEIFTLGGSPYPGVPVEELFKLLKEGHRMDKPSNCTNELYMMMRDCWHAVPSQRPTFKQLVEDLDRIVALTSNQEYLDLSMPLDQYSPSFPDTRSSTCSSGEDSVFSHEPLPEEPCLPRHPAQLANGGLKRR
T2 sequence (P22607 23-806 V555M): as the sequence (P22607 23-806) above, with V533M counted along it
T4 sequence (P21802 22-821): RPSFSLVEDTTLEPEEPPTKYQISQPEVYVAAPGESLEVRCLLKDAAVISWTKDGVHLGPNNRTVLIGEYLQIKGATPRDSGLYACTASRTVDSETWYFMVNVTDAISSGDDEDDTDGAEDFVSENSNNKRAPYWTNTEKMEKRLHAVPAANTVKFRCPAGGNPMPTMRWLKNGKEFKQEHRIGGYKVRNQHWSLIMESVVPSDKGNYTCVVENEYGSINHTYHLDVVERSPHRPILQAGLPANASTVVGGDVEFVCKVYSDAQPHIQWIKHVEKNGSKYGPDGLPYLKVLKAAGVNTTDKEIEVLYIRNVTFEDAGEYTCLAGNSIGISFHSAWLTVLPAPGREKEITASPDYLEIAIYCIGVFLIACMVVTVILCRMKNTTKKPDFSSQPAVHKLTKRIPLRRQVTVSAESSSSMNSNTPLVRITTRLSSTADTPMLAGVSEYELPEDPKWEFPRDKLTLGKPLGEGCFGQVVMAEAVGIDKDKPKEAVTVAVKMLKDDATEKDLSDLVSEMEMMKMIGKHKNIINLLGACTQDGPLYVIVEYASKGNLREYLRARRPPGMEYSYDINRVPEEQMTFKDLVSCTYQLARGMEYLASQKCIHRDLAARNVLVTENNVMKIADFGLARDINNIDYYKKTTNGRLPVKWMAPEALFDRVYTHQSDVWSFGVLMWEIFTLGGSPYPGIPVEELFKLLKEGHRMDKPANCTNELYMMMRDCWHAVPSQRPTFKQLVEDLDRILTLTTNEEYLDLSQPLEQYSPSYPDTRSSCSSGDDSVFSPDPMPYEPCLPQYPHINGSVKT

As for `C=CC(=O)Nc1ccc2c(c1)c(C)cn2-c1nc(Nc2cn(C(C)(C)C#N)nc2C)ncc1F` [Example 159, N-[1-[2-[[1-(1-cyano-1-methyl-ethyl)-3-methyl-pyrazol-4-yl]amino]-5-fluoro-pyrimidin-4-yl]-3-methyl-indol-5-yl]prop-2-enamide], the Kd on FGFR1, on FGFR3 (V555M), on FGFR3 and on FGFR2 was 0.1 to 100 nM throughout.

`C=CC(=O)Nc1ccc2c(c1)c(C)cn2-c1nc(Nc2cc(C)sn2)ncc1F` [Example 161, N-[1-[5-fluoro-2-[(5-methylisothiazol-3-yl)amino]pyrimidin-4-yl]-3-methyl-indol-5-yl]prop-2-enamide]: the Kd on FGFR1, at FGFR3 (V555M), on FGFR3 and at FGFR2 was 0.1 to 100 nM each time.

With `C=CC(=O)Nc1ccc2c(-c3ccnc(Nc4cnn(CC(F)(F)F)c4)n3)cn(C)c2c1` [Example 168, N-[1-methyl-3-[2-[[1-(2,2,2-trifluoroethyl)pyrazol-4-yl]amino]pyrimidin-4-yl]indol-6-yl]prop-2-enamide], the Kd on FGFR1, at FGFR3 (V555M), at FGFR3 and on FGFR2 was 0.1 to 100 nM throughout.

`C=CC(=O)Nc1ccc2c(-c3nc(Nc4cn(CC(F)F)nc4C)ncc3F)cn(C)c2c1` [Example 169, N-[3-[2-[[1-(2,2-difluoroethyl)-3-methyl-pyrazol-4-yl]amino]-5-fluoro-pyrimidin-4-yl]-1-methyl-indol-6-yl]prop-2-enamide]: the Kd on FGFR1 lay within 250 to 1000 nM; at FGFR3 (V555M) it was 0.1 to 100 nM; at FGFR3 it was 0.1 to 100 nM; on FGFR2 it was 0.1 to 100 nM.

Regarding `C=CC(=O)Nc1ccc2c(-c3ccnc(Nc4cn(CC(F)F)nc4C)n3)cn(C)c2c1` [Example 170, N-[3-[2-[[1-(2,2-difluoroethyl)-3-methyl-pyrazol-4-yl]amino]pyrimidin-4-yl]-1-methyl-indol-6-yl]prop-2-enamide], the Kd was 100 to 250 nM at FGFR1, 0.1 to 100 nM at FGFR3 (V555M), 0.1 to 100 nM on FGFR3 and 0.1 to 100 nM on FGFR2.

For `CCn1cc(Nc2ncc(F)c(-n3cc(C)c4cc(NC(=O)/C=C/CN(C)C)cnc43)n2)c(C)n1` [Example 171, (E)-4-(dimethylamino)-N-[1-[2-[(1-ethyl-3-methyl-pyrazol-4-yl)amino]-5-fluoro-pyrimidin-4-yl]-3-methyl-pyrrolo[2,3-b]pyridin-5-yl]but-2-enamide], the Kd on FGFR1 lay in the range of 100 to 250 nM; on FGFR3 (V555M) it was 100 to 250 nM; on FGFR3 it was 0.1 to 100 nM; at FGFR2, 100 to 250 nM.

For the molecule `C=CC(=O)Nc1ccc2c(-c3ccnc(Nc4cn(C)nc4C)n3)cn(C)c2c1` [Example 172, N-[3-[2-[(1,3-dimethylpyrazol-4-yl)amino]pyrimidin-4-yl]-1-methyl-indol-6-yl]prop-2-enamide], the equilibrium dissociation constant (Kd) was 250 to 1000 nM at FGFR1, 0.1 to 100 nM at FGFR3 (V555M), 0.1 to 100 nM at FGFR3 and 0.1 to 100 nM on FGFR2.

Turning to `C=CC(=O)Nc1ccc2c(-c3ccnc(Nc4cn(CC)nc4C)n3)cn(C)c2c1` [Example 173, N-[3-[2-[(1-ethyl-3-methyl-pyrazol-4-yl)amino]pyrimidin-4-yl]-1-methyl-indol-6-yl]prop-2-enamide], the Kd was in the range of 250 to 1000 nM on FGFR1, 0.1 to 100 nM on FGFR3 (V555M), 0.1 to 100 nM at FGFR3 and 100 to 250 nM at FGFR2.

In the case of `C=CC(=O)Nc1ccc2c(-c3nc(Nc4cn(CC)nc4C)ncc3F)cn(C)c2c1` [Example 177, N-[3-[2-[(1-ethyl-3-methyl-pyrazol-4-yl)amino]-5-fluoro-pyrimidin-4-yl]-1-methyl-indol-6-yl]prop-2-enamide], the Kd on FGFR1 was 250 to 1000 nM; at FGFR3 (V555M), 0.1 to 100 nM; at FGFR3 it was 0.1 to 100 nM; on FGFR2 it was 0.1 to 100 nM.

Consider `Cc1nn(C)cc1Nc1ncc(F)c(-n2cc(C)c3cc(NC(=O)/C=C/CN(C)C)cnc32)n1` [Example 179, (E)-4-(dimethylamino)-N-[1-[2-[(1,3-dimethylpyrazol-4-yl)amino]-5-fluoro-pyrimidin-4-yl]-3-methyl-pyrrolo[2,3-b]pyridin-5-yl]but-2-enamide], for which the Kd fell in the range of 250 to 1000 nM at FGFR1, 100 to 250 nM on FGFR3 (V555M), 100 to 250 nM on FGFR3 and 100 to 250 nM on FGFR2.

For `Cc1cn(-c2nc(Nc3cnn(C[C@@H](C)O)c3)ncc2F)c2ncc(NC(=O)/C=C/CN(C)C)cc12` [Example 191, (E)-4-(dimethylamino)-N-[1-[5-fluoro-2-[[1-[(2R)-2-hydroxypropyl]pyrazol-4-yl]amino]pyrimidin-4-yl]-3-methyl-pyrrolo[2,3-b]pyridin-5-yl]but-2-enamide], the Kd on FGFR1, at FGFR3 (V555M), at FGFR3 and on FGFR2 was 0.1 to 100 nM in each case.

Consider `C=CC(=O)Nc1ccc2c(c1)c(C)cn2-c1nc(Nc2cnn(CCO)c2C)ncc1F` [Example 192, N-[1-[5-fluoro-2-[[1-(2-hydroxyethyl)-5-methyl-pyrazol-4-yl]amino]pyrimidin-4-yl]-3-methyl-indol-5-yl]prop-2-enamide], for which the Kd on FGFR1, on FGFR3 (V555M), on FGFR3 and at FGFR2 was 0.1 to 100 nM throughout.

As for `C=CC(=O)Nc1ccc2c(c1)c(C)cn2-c1nc(Nc2cnn(CCOCC)c2)ncc1F` [Example 193], the Kd at FGFR1, at FGFR3 (V555M), on FGFR3 and on FGFR2 was 0.1 to 100 nM throughout.

In the case of `Cc1cn(-c2nc(Nc3cnn(C[C@H](C)O)c3)ncc2F)c2ncc(NC(=O)/C=C/CN(C)C)cc12` [Example 196, (E)-4-(dimethylamino)-N-[1-[5-fluoro-2-[[1-[(2S)-2-hydroxypropyl]pyrazol-4-yl]amino]pyrimidin-4-yl]-3-methyl-pyrrolo[2,3-b]pyridin-5-yl]but-2-enamide], the Kd on FGFR1, on FGFR3 (V555M), at FGFR3 and on FGFR2 was 0.1 to 100 nM each time.

With `Cc1cn(-c2nc(Nc3cnn(C[C@@H](C)O)c3)ncc2F)c2ncc(NC(=O)/C=C/CN3CCOCC3)cc12` [Example 197, (E)-N-[1-[5-fluoro-2-[[1-[(2R)-2-hydroxypropyl]pyrazol-4-yl]amino]pyrimidin-4-yl]-3-methyl-pyrrolo[2,3-b]pyridin-5-yl]-4-morpholino-but-2-enamide], the dissociation constant Kd was 250 to 1000 nM on FGFR1, 250 to 1000 nM at FGFR3 (V555M), 100 to 250 nM at FGFR3 and 250 to 1000 nM at FGFR2.

`Cc1cn(-c2nc(Nc3cnn(C[C@H](C)O)c3)ncc2F)c2ncc(NC(=O)/C=C/CN3CCOCC3)cc12` [Example 198, (E)-N-[1-[5-fluoro-2-[[1-[(2S)-2-hydroxypropyl]pyrazol-4-yl]amino]pyrimidin-4-yl]-3-methyl-pyrrolo[2,3-b]pyridin-5-yl]-4-morpholino-but-2-enamide]: the Kd on FGFR1 lay in the range of 250 to 1000 nM; at FGFR3 (V555M), 250 to 1000 nM; at FGFR3, 100 to 250 nM; on FGFR2, 100 to 250 nM.

In the case of `Cc1cn(-c2nc(Nc3cnn(C)c3C)ncc2F)c2ncc(NC(=O)/C=C/CN(C)C)cc12` [Example 199, (E)-4-(dimethylamino)-N-[1-[2-[(1,5-dimethylpyrazol-4-yl)amino]-5-fluoro-pyrimidin-4-yl]-3-methyl-pyrrolo[2,3-b]pyridin-5-yl]but-2-enamide], the Kd on FGFR1 lay within 100 to 250 nM; at FGFR3 (V555M), 0.1 to 100 nM; on FGFR3, 0.1 to 100 nM; at FGFR2, 0.1 to 100 nM.
